Test results reported in patent US20230234991A1, “SELF-ASSEMBLED PEPTIDE NANORODS AND USES THEREOF” (TRANSFERT PLUS, SOCIÉTÉ EN COMMANDITE, priority 2020, published 2023).
“Also recorded” adds a separate entry of the source.

Assays:
[1] = target: T1, TLR2 (Mus musculus, UniProt Q9QUN7); test: TLR-2 stimulation, SEAP activity in HEK-Blue mTLR2 cells; format: cell-based
T1 construct: host or cells: HEK293 (HEK-Blue mTLR2)
Protocol: TLR-2 stimulation. HEK293 cells stably co-transfected with mTLR2 and SEAP (HEK-Blue mTLR2 cells, InvivoGen) were cultivated in Dulbecco's Modified Eagle's Medium supplemented with 4.5 g/I glucose, 10% (v/v) fetal bovine serum, 100 U/ml penicillin, […], […], 2 mM L-glutamine. At 50-80% confluency, cells were seeded in Hek-Blue detection medium (InvivoGen) at a density of 50,000 cells/well in a 96-well plate containing NRs and controls. After 16 h incubation at 37° C. in 5% CO2, absorbance was monitored at 630 nm.

[2] = test system: M2e; set-up: species or system BALB/c mice; conditions: mouse, in vivo, sc
[3] = test system: influenza virus A/PuertoRico/8/34; set-up: species or system BALB/c mice; conditions: mouse, in vivo

T1 sequence (Q9QUN7 25-784): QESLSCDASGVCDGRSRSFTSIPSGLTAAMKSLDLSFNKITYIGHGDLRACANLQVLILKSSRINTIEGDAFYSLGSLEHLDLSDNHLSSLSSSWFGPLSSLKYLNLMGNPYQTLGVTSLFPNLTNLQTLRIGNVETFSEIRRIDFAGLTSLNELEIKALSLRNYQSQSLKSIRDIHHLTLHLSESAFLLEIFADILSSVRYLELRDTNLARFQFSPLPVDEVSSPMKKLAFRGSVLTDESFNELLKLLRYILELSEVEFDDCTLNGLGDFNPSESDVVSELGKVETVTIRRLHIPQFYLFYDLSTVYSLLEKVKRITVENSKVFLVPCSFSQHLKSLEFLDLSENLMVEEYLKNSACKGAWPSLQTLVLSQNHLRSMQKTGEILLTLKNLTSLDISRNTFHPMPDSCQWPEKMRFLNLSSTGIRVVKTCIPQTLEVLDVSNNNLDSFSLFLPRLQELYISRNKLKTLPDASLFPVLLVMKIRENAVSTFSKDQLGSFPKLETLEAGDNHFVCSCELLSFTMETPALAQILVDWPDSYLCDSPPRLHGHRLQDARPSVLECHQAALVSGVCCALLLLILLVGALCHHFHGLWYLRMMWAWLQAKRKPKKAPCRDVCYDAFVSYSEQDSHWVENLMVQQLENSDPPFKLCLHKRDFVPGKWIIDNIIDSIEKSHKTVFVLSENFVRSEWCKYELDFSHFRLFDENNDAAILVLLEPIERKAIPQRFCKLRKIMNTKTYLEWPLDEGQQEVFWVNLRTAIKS

SLLTEVETPIRNEWGSRSNGSSD [Peptide M2e]
SEAP activity [1]: no activity was measured
M2e-specific antibody response (IgG) [2]: did not raise any significant level of epitope-specific IgG; also recorded: very low antibody response; also recorded: significant antibody titer
mortality [3]: 100%
